± gives the expanded uncertainty stated by the source.

The conditions of this data set: Liquid; for Critical pressure: Direct measurement; for Critical temperature: Pulse Heating.

Consider `O=C(c1ccccc1)c1ccc[cH-]1.[Fe+2].c1cc[cH-]c1` [benzoylferrocene], for which the Critical pressure was 1590 ± 120 kPa and the Critical temperature is 886 ± 26 K.

Turning to `CC(=O)c1ccc[cH-]1.[Fe+2].c1cc[cH-]c1` [acetylferrocene], the Critical pressure is listed as 3280 ± 260 kPa and the Critical temperature was 847 ± 26 K.

`[CH]1C=CC=C1.[CH]1C=CC=C1.[Fe]` [ferrocene]: the Critical pressure was determined as 3610 ± 200 kPa and the Critical temperature is 785 ± 16 K.

In the case of `CCCC[c-]1cccc1.[Fe+2].c1cc[cH-]c1` [butylferrocene], the Critical pressure came to 2180 ± 180 kPa and the Critical temperature is 784 ± 24 K.

These data come from the NIST ThermoML archive (doi:10.1016/j.fluid.2012.03.021).
